Assays:
Assay in all cases: radiometric filter-binding kinase assay, Kinase HotSpot
Settings in all cases: compound 0.5 µM; ATP 10 µM
RPS6KA2 KD1 KD2 (human) = RPS6KA2 KD1 KD2 (human) (UniProt Q15349)
MAPKAPK3 (human) = MAPKAPK3 (human) (UniProt Q16644)
MAPK13 (human) = MAPK13 (human) (UniProt O15264)
SRPK3 (human) = SRPK3 (human) (UniProt Q9UPE1)
PRKCB2 (human) = PRKCB2 (human) (UniProt P05771)
TBK1 (human) = TBK1 (human) (UniProt Q9UHD2)
EPHB3 (human) = EPHB3 (human) (UniProt P54753)
ROCK1 (human) = ROCK1 (human) (UniProt Q13464)
DCLK2 (human) = DCLK2 (human) (UniProt Q8N568)
DCLK2 (human), sequence (Q8N568 whole entry, looked up): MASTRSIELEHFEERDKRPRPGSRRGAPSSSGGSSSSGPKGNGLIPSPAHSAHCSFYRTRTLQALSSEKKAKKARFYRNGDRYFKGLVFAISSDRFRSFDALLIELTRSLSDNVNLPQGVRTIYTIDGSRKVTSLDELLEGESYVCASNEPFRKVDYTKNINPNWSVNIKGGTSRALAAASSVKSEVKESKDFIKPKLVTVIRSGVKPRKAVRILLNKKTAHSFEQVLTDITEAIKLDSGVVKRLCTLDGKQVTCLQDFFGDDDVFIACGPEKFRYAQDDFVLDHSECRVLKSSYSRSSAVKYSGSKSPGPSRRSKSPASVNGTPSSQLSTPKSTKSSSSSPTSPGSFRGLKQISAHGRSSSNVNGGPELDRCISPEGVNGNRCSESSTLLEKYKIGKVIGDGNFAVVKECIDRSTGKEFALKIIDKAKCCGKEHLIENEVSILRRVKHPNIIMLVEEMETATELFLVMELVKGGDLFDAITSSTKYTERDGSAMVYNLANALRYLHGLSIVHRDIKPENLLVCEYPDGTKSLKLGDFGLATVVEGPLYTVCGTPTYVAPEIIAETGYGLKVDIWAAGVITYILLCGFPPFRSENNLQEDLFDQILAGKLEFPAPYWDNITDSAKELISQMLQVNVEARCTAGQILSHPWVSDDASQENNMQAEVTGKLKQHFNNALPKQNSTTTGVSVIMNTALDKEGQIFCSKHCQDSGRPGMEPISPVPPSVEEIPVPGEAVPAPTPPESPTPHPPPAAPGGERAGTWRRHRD

CDK2 CCNE1 (human) = CDK2 CCNE1 (human) (UniProt P24941+P24864)
CDK2 CCNE1 (human), sequence (P24864 whole entry, looked up, other chains not shown): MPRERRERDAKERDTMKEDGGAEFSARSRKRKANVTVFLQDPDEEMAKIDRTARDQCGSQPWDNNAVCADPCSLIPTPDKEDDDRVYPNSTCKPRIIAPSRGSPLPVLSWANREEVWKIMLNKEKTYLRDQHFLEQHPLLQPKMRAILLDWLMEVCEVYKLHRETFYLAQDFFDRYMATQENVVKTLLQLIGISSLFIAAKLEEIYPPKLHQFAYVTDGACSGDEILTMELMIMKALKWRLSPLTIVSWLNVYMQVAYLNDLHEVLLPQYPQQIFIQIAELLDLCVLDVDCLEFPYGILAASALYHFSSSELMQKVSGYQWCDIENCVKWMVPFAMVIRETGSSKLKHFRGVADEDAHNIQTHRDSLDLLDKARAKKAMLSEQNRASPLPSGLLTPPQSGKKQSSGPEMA

STK10 (human) = STK10 (human) (UniProt O94804)
RPS6KA4 KD2 (human) = RPS6KA4 KD2 (human) (UniProt O75676)
CLK1 (human) = CLK1 (human) (UniProt P49759)
TLK2 (human) = TLK2 (human) (UniProt Q86UE8)
ROS1 (human) = ROS1 (human) (UniProt P08922)
LRRK2 (human) = LRRK2 (human) (UniProt Q5S007)
CAMK2B (human) = CAMK2B (human) (UniProt Q13554)
CAMK2B (human), sequence (Q13554 whole entry, looked up): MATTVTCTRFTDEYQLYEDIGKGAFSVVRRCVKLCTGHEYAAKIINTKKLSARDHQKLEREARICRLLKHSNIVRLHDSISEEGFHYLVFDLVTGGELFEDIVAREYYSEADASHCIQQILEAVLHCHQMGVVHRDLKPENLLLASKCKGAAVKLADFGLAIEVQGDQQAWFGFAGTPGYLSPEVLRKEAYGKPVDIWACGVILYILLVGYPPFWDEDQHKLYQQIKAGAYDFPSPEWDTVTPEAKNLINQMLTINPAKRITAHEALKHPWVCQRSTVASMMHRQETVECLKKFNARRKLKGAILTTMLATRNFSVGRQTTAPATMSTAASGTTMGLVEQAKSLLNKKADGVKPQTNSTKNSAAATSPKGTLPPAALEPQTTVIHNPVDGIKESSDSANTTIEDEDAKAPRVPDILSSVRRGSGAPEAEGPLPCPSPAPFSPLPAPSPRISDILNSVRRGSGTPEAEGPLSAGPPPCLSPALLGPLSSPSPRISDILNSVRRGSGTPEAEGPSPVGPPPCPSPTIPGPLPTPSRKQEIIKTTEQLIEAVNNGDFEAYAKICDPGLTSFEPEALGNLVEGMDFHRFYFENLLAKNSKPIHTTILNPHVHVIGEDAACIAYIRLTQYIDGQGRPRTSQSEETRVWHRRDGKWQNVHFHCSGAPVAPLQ

STK39 (human) = STK39 (human) (UniProt Q9UEW8)
NEK2 (human) = NEK2 (human) (UniProt P51955)
STK38 (human) = STK38 (human) (UniProt Q15208)
CDK2 CCNA2 (human) = CDK2 CCNA2 (human) (UniProt P24941+P20248)
MINK1 (human) = MINK1 (human) (UniProt Q8N4C8)
MINK1 (human), sequence (Q8N4C8 whole entry, looked up): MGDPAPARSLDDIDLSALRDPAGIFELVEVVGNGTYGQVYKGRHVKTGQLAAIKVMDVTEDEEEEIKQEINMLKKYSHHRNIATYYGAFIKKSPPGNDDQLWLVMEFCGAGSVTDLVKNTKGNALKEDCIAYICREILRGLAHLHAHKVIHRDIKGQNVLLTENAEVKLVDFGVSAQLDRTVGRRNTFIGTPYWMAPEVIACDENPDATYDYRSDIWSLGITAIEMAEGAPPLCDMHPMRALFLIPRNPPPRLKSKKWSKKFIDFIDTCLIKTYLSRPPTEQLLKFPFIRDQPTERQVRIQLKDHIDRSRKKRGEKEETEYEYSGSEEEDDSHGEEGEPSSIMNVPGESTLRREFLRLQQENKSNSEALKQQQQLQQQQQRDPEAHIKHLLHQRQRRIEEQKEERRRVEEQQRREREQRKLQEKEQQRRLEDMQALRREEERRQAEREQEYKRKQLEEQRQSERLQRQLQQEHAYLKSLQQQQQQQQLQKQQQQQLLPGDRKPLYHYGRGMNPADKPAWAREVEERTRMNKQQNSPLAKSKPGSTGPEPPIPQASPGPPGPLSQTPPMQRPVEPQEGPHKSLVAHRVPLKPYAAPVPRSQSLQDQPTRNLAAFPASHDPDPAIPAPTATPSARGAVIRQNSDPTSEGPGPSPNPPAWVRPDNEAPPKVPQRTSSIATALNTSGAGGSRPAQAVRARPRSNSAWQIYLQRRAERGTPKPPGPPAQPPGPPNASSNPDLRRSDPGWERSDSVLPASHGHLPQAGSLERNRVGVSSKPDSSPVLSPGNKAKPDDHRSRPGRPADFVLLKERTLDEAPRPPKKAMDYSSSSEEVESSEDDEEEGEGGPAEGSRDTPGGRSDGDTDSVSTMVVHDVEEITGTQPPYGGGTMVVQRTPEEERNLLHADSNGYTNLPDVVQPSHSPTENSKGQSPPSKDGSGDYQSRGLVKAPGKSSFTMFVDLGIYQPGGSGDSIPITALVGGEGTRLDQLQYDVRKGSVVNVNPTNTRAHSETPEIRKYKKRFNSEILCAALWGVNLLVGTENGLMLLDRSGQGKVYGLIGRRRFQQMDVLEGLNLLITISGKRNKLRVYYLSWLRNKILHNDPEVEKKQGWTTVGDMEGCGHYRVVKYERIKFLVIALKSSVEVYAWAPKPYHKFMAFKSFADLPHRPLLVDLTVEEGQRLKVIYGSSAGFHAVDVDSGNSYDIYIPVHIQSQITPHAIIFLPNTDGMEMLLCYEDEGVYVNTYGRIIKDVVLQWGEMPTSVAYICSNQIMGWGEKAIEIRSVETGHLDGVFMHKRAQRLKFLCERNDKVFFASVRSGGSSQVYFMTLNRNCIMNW

PTK2 (human) = PTK2 (human) (UniProt Q05397)
AURKA (human) = AURKA (human) (UniProt O14965)
CSNK1G2 (human) = CSNK1G2 (human) (UniProt P78368)
DAPK3 (human) = DAPK3 (human) (UniProt O43293)
TTK (human) = TTK (human) (UniProt P33981)
BLK (human) = BLK (human) (UniProt P51451)
RIPK2 (human) = RIPK2 (human) (UniProt O43353)
TYRO3 (human) = TYRO3 (human) (UniProt Q06418)
PRKACG (human) = PRKACG (human) (UniProt P22612)
NTRK1 (human) = NTRK1 (human) (UniProt P04629)
BRSK2 (human) = BRSK2 (human) (UniProt Q8IWQ3)
ULK3 (human) = ULK3 (human) (UniProt Q6PHR2)
TSSK1B (human) = TSSK1B (human) (UniProt Q9BXA7)
TSSK1B (human), sequence (Q9BXA7 whole entry, looked up): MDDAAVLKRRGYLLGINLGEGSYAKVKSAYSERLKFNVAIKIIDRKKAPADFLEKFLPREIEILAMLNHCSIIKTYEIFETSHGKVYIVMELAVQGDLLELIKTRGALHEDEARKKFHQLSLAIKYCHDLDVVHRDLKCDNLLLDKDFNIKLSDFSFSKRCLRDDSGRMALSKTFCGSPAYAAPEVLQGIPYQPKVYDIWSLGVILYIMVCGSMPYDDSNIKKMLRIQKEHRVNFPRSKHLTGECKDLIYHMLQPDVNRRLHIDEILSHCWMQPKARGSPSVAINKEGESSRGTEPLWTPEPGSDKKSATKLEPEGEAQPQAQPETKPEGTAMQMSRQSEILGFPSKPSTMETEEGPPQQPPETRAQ

IGF1R (human) = IGF1R (human) (UniProt P08069)
MAPK10 (human) = MAPK10 (human) (UniProt P53779)
MET (human) = MET (human) (UniProt P08581)
MAPK9 (human) = MAPK9 (human) (UniProt P45984)
FYN (human) = FYN (human) (UniProt P06241)
ABL1 (human) = ABL1 (human) (UniProt P00519)
FES (human) = FES (human) (UniProt P07332)

RPS6KA2 KD1 KD2 (human), sequence (Q15349 whole entry, looked up): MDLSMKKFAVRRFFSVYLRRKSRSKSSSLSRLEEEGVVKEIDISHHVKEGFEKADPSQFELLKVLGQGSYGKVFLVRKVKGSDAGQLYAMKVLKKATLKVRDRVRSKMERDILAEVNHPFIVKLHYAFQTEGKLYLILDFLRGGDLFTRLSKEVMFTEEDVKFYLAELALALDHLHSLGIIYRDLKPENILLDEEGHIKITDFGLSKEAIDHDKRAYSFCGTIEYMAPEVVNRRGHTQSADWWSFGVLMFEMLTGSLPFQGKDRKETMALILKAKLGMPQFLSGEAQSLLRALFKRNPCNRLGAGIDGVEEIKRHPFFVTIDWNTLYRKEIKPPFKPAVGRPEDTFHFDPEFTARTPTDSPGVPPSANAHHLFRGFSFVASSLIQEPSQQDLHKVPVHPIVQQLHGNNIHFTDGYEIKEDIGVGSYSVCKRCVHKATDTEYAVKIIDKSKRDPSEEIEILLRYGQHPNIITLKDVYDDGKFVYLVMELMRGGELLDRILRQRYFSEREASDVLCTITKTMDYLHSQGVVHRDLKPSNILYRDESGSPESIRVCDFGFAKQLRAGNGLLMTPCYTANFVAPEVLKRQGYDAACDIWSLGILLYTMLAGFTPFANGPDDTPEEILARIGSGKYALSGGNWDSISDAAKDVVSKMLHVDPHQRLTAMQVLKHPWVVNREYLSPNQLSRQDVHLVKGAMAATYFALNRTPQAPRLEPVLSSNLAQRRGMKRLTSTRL
MAPKAPK3 (human), sequence (Q16644 whole entry, looked up): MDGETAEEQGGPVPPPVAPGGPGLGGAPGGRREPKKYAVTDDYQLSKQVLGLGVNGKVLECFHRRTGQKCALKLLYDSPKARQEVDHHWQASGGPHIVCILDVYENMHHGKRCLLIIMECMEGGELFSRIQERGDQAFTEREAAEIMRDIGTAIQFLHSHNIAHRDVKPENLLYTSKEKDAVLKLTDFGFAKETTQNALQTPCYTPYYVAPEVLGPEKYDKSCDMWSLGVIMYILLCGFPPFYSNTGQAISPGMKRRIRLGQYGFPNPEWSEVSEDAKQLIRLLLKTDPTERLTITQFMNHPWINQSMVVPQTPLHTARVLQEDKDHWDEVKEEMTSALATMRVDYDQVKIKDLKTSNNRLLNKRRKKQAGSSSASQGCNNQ
MAPK13 (human), sequence (O15264 whole entry, looked up): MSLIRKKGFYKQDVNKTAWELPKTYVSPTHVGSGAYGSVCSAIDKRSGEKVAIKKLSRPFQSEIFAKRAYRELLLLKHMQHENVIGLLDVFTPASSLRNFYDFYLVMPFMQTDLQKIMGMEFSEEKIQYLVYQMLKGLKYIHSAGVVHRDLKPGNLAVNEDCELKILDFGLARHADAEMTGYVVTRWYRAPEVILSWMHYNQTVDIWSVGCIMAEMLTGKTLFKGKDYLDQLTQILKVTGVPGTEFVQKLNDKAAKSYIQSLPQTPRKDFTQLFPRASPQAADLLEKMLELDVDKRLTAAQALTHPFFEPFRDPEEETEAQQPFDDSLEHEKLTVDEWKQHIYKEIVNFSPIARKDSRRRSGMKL

SMILES | residual activity (RPS6KA2 KD1 KD2 (human)) [%] | residual activity (MAPKAPK3 (human)) [%] | residual activity (MAPK13 (human)) [%] | residual activity (SRPK3 (human)) [%] | residual activity (PRKCB2 (human)) [%] | residual activity (EPHB3 (human)) [%] | residual activity (ROCK1 (human)) [%] | residual activity (DCLK2 (human)) [%] | residual activity (STK10 (human)) [%] | residual activity (RPS6KA4 KD2 (human)) [%] | residual activity (CLK1 (human)) [%] | residual activity (ROS1 (human)) [%] | residual activity (LRRK2 (human)) [%] | residual activity (CAMK2B (human)) [%] | residual activity (STK39 (human)) [%] | residual activity (NEK2 (human)) [%] | residual activity (MINK1 (human)) [%] | residual activity (AURKA (human)) [%] | residual activity (DAPK3 (human)) [%] | residual activity (TTK (human)) [%] | other results
Cc1ccc(Nc2nccc(N(C)c3ccc4c(C)n(C)nc4c3)n2)cc1S(N)(=O)=O | 93.2 | 98.5 | 94.6 | 102 | 96.7 | 71.7 | 100 | 102 | 50.1 | 102 | 103 | 17 | 109 | 95.5 | 95.9 | 110 | 73.7 | 38.4 | 92.3 | 73.4 | residual activity (TBK1 (human)): 99.5%; residual activity (CDK2 CCNE1 (human)): 96.4%; residual activity (TLK2 (human)): 85.6%; residual activity (STK38 (human)): 100%; residual activity (CDK2 CCNA2 (human)): 96.1%; residual activity (PTK2 (human)): 76%; residual activity (CSNK1G2 (human)): 96.9%; residual activity (BLK (human)): 75.6%; residual activity (RIPK2 (human)): 68.2%; residual activity (TYRO3 (human)): 92%; residual activity (PRKACG (human)): 111%; residual activity (NTRK1 (human)): 91.8%; residual activity (BRSK2 (human)): 101%; residual activity (ULK3 (human)): 102%; residual activity (TSSK1B (human)): 99%
CCN(CC)CCNC(=O)c1c(C)[nH]c(/C=C2\C(=O)Nc3ccc(F)cc32)c1C | 17.3 | 102 | 92.4 | 102 | 104 | 77.4 | 99.7 | 85 | 31.2 | 50.8 | 23.3 | 71.6 | 3.34 | 46.7 | 87.4 | 106 | 10.5 | 59.7 | 74.2 | 68 | residual activity (IGF1R (human)): 62.6%; residual activity (TLK2 (human)): 63.3%; residual activity (MAPK10 (human)): 99.5%; residual activity (STK38 (human)): 93.8%; residual activity (MET (human)): 91%; residual activity (BLK (human)): 28.7%; residual activity (RIPK2 (human)): 104%; residual activity (MAPK9 (human)): 96.7%; residual activity (TYRO3 (human)): 28.3%; residual activity (PRKACG (human)): 109%; residual activity (NTRK1 (human)): 11.5%; residual activity (BRSK2 (human)): 54.5%; residual activity (ULK3 (human)): 57.4%; residual activity (TSSK1B (human)): 20.7%; residual activity (FYN (human)): 71.3%
Cc1ccc(NC2=CC(=O)c3sc(C)nc3C2=O)cc1 | 82.5 | 76.5 | 105 | 98.2 | 93.8 | 89.2 | 100 | 95.3 | 95 | 88.4 | 100 | 107 | 102 | 109 | 93.4 | 96.4 | 101 | 110 | 104 | 98.9 | residual activity (IGF1R (human)): 92.2%; residual activity (TBK1 (human)): 94%; residual activity (CDK2 CCNE1 (human)): 72.9%; residual activity (MAPK10 (human)): 105%; residual activity (CDK2 CCNA2 (human)): 88.1%; residual activity (ABL1 (human)): 90.8%; residual activity (PTK2 (human)): 102%; residual activity (MET (human)): 99.7%; residual activity (CSNK1G2 (human)): 99.9%; residual activity (BLK (human)): 95.4%; residual activity (RIPK2 (human)): 95.2%; residual activity (MAPK9 (human)): 96.5%; residual activity (TYRO3 (human)): 95.3%; residual activity (NTRK1 (human)): 80.6%; residual activity (BRSK2 (human)): 93.1%; residual activity (FES (human)): 101%; residual activity (TSSK1B (human)): 115%; residual activity (FYN (human)): 95.6%
c1ccc(-c2n[nH]c3c2oc2ccccc23)cc1 | 77.5 | 100 | 109 | 94.5 | 113 | 84.7 | 99.1 | 90.2 | 108 | 90.2 | 84 | 107 | 91.4 | 101 | 120 | 99.8 | 81.4 | 103 | 91.5 | 95.7 | residual activity (IGF1R (human)): 98.1%; residual activity (TBK1 (human)): 105%; residual activity (CDK2 CCNE1 (human)): 95.6%; residual activity (MAPK10 (human)): 93.4%; residual activity (CDK2 CCNA2 (human)): 88.1%; residual activity (ABL1 (human)): 99.6%; residual activity (PTK2 (human)): 94.7%; residual activity (MET (human)): 98.4%; residual activity (CSNK1G2 (human)): 86.4%; residual activity (BLK (human)): 88.9%; residual activity (RIPK2 (human)): 78.8%; residual activity (MAPK9 (human)): 96.5%; residual activity (TYRO3 (human)): 87.6%; residual activity (NTRK1 (human)): 85.6%; residual activity (BRSK2 (human)): 101%; residual activity (FES (human)): 114%; residual activity (TSSK1B (human)): 97.2%; residual activity (FYN (human)): 104%
COc1ccc2c(c[n+](C)c3c4cc5c(cc4ccc23)OCO5)c1OC | 86.1 | 83 | 97.3 | 96.1 | 100 | 95.4 | 99.4 | 96 | 92.7 | 88.3 | 101 | 119 | 104 | 98.9 | 90.8 | 98.6 | 97.5 | 107 | 102 | 101 | residual activity (IGF1R (human)): 93.3%; residual activity (TBK1 (human)): 96.2%; residual activity (CDK2 CCNE1 (human)): 88.9%; residual activity (MAPK10 (human)): 100%; residual activity (CDK2 CCNA2 (human)): 85.1%; residual activity (ABL1 (human)): 92.7%; residual activity (PTK2 (human)): 102%; residual activity (MET (human)): 94.7%; residual activity (CSNK1G2 (human)): 96.8%; residual activity (BLK (human)): 98.7%; residual activity (RIPK2 (human)): 105%; residual activity (MAPK9 (human)): 102%; residual activity (TYRO3 (human)): 95.7%; residual activity (NTRK1 (human)): 89.8%; residual activity (BRSK2 (human)): 97%; residual activity (FES (human)): 108%; residual activity (TSSK1B (human)): 97.3%; residual activity (FYN (human)): 101%

— the kinase profiling compilation of Christmann-Franck et al. (2016)
